Laboratory results from publication PMC3210919 (Biochemistry, 2011).
Where “and” joins values, the source holds several entries; their conditions need not be identical. Identical values can stand only once. Like-named read-outs stand apart in the source and are kept apart here. Values belong to the molecule of their own block, whether it stands above or below them.

Assays:
[1] = biological target: T1, T882A RePC mutant (Rhizobium etli, UniProt Q2K340, T882A)
[2] = biological target: T2, K1119Q RePC mutant (Rhizobium etli, UniProt Q2K340, K1119Q)
[3] = biological target: T3, wild-type RePC (Rhizobium etli, UniProt Q2K340); format: biochemical; conditions: for % kcat of pyruvate carboxylation: phosphoryl donor varied, 0.25 mM acetyl-CoA
[4] = biological target: T3, wild-type RePC; format: biochemical
[5] = biological target: T2, K1119Q RePC mutant; test: HCO3^−-dependent ATPase reaction, K1119Q mutant; format: biochemical
[6] = system: wild-type RePC (pyruvate carboxylase from R. etli); test: Pyruvate carboxylation activity, malate dehydrogenase coupled assay; format: biochemical, Rhizobium etli
[7] = biological target: T1, T882A RePC mutant; remark: listed apart in the source
[8] = biological target: T3, wild-type RePC; test: HCO3^−-dependent ATPase activity in the absence of pyruvate; format: biochemical
[9] = biological target: T3, wild-type RePC; format: biochemical; remark: listed apart in the source
[10] = biological target: T3, wild-type RePC; test: Coupling study: initial rates of Pi release at varying pyruvate; format: biochemical; conditions: for Ka pyruvate, stimulation of Pi release: 15 mM HCO3^−
[11] = biological target: T3, wild-type RePC; test: Coupling study: initial rates of oxaloacetate formation at varying pyruvate; conditions: pyruvate varied; for kcat, oxaloacetate formation: 15 mM HCO3^−
[12] = system: NC(=O)OP(=O)(O)O; test: purified protein, by the assay type; conditions: no free biotin, pH 7.5, 25.0 °C
[13] = substrate: CC(=O)C(=O)O; test: purified protein, by the assay type; conditions: other: (−) acetyl-CoA, 15 mM HCO3^−
[14] = wild-type, (+) 10 mM free biotin
[15] = labelled substrate varied, others saturating, pH 7.5, 25° C, 0.25 mM acetyl-CoA
[16] = acetyl-CoA varied, 0.5 mM free Mg^2+, Hill fit eqn (4)
[17] = acetyl-CoA varied, 1.0 mM free Mg^2+, Hill fit eqn (4)
[18] = acetyl-CoA varied, 3.0 mM free Mg^2+, Hill fit eqn (4)
[19] = saturating acetyl-CoA and substrates

Molecule: CC(=O)OP(=O)(O)O [Acetyl phosphate]
- % wild-type kcat/Km ([1]; (+) 10 mM free biotin): 40%
- Km ([1]; (+) 10 mM free biotin): 140 ± 10 µM
- kcat ([1]; (+) 10 mM free biotin): 0.002 ± 0.00017 s⁻¹
- % wild-type kcat/Km ([1]; no free biotin): 80%
- Km ([1]; no free biotin): 220 ± 10 µM
- kcat ([1]; no free biotin): 0.005 ± 0.00017 s⁻¹
- % wild-type kcat/Km ([2]; (+) 10 mM free biotin): 57%
- Km ([2]; (+) 10 mM free biotin): 370 ± 30 µM
- kcat ([2]; (+) 10 mM free biotin): 0.00733 ± 0.00017 s⁻¹
- % wild-type kcat/Km ([2]; no free biotin): 95%
- Km ([2]; no free biotin): 290 ± 10 µM
- kcat ([2]; no free biotin): 0.00783 ± 0.00017 s⁻¹
- % kcat of pyruvate carboxylation ([3]; pH 7.5, 25° C): 0.1%
- Km [3, 14]: 140 ± 40 µM
- kcat [3, 14]: 0.00483 ± 3.3e-05 s⁻¹

Molecule: NC(=O)OP(=O)(O)O [Carbamoyl phosphate]
- % wild-type kcat/Km ([1]; (+) 10 mM free biotin): 920%
- % wild-type kcat/Km ([1]; no free biotin): 750%
- % wild-type kcat/Km ([2]; (+) 10 mM free biotin): 45%
- % wild-type kcat/Km ([2]; no free biotin): 17%
- % kcat of pyruvate carboxylation ([3]; pH 7.5, 25° C): 0.6%
- kcat ([3]; wild-type, no free biotin, pH 7.5, 25° C, […] MgADP, 0.25 mM acetyl-CoA (Table 7)): 0.04 ± 0.0017 s⁻¹

Molecule: Nc1ncnc2c1ncn2[C@@H]1O[C@H](COP(=O)(O)OP(=O)(O)O)[C@@H](O)[C@H]1O [MgADP]
- % kcat of pyruvate carboxylation ([4]; MgADP varied, pH 7.5, 25° C, 0.25 mM acetyl-CoA): 0.2%

Molecule: Nc1ncnc2c1ncn2[C@@H]1O[C@H](COP(=O)(O)OP(=O)(O)OP(=O)(O)O)[C@@H](O)[C@H]1O [MgATP]
- % wild-type kcat/Km ([5]; (+) 10 mM free biotin): 40%
- % wild-type kcat/Km ([5]; no free biotin): 0.06%
- kcat ([5]; no free biotin): 0.00137 ± 1.7e-05 s⁻¹
- Km [6, 15]: 145 ± 9 µM
- kcat [6, 15]: 396 ± 10 ^d min^−1
- % wild-type kcat/Km ([7]; (+) 10 mM free biotin): 260%
- % wild-type kcat/Km ([7]; no free biotin): 225%
- kcat ([7]; no free biotin): 0.233 ± 0.033 s⁻¹
- % kcat of pyruvate carboxylation ([8]; MgATP varied, pH 7.5, 25° C, 0.25 mM acetyl-CoA): 0.6%
- kcat ([8]; wild-type, no free biotin, pH 7.5, 25° C, 15 mM HCO3^−, 7.5 mM MgCl2, 0.25 mM acetyl-CoA): 0.043 ± 0.0015 s⁻¹

- concentration of free Mg^2+ that inhibited pyruvate carboxylation [6]: > 7 mM
- fold increase in kcat ([6]; Mg^2+ increased from 0.5 to 3 mM, acetyl-CoA varied): 4.9 fold
- Ka for Mg^2+ for the effect on Vmax ([6]; estimated from replot of apparent 1/Vmax vs. 1/[Mg^2+], pyruvate varied): ≈ 40 mM
- inhibition of the MgADP phosphorylation reaction by Mg^2+ ([3]; up to 11 mM Mg^2+): no inhibition
- concentration of free Mg^2+ that inhibited MgATP-cleavage [8]: > 7 mM
Molecule: [Mg+2] [Mg^2+]

- n acetyl-CoA (Hill coefficient) ([6]; acetyl-CoA varied, 0.5 mM free Mg^2+): 2.0 ± 0.3
- Ka acetyl-CoA [6, 16]: 38 ± 2 µM
- Vmax [6, 16]: 1.16 ± 0.07 µmol/mg/min
- n acetyl-CoA (Hill coefficient) ([6]; acetyl-CoA varied, 1.0 mM free Mg^2+): 2.8 ± 0.5
- Ka acetyl-CoA [6, 17]: 26 ± 2 µM
- Vmax [6, 17]: 1.39 ± 0.06 µmol/mg/min
- n acetyl-CoA (Hill coefficient) ([6]; acetyl-CoA varied, 3.0 mM free Mg^2+): 2.6 ± 0.2
- Ka acetyl-CoA [6, 18]: 10 µM and 10.0 ± 0.4 µM
- Vmax [6, 18]: 5.7 ± 0.1 µmol/mg/min
- Vmax ([6]; acetyl-CoA varied, […] free Mg^2+, Hill fit eqn (4)): 2.59 ± 0.08 µmol/mg/min
- overall fold decrease in the Ka for acetyl-CoA ([6]; addition of 3.0 mM free Mg^2+): 3.8 fold
- kcat (specific activity), (+) acetyl-CoA [6, 19]: 11.7 ± 0.333 s⁻¹
- % rate (−) acetyl-CoA compared to the specific activity in the presence of acetyl-CoA ([6]; saturating substrates): 9%
- effect of acetyl-CoA on the rate of MgADP phosphorylation by carbamoyl phosphate [3]: no effect
- kcat (specific activity), (+) acetyl-CoA [3, 19]: 0.04 ± 0.0017 s⁻¹
- % rate (−) acetyl-CoA compared to the specific activity in the presence of acetyl-CoA ([3]; saturating substrates): 100%
- decrease in rate caused by lack of acetyl-CoA ([4]; full reverse reaction): 78%
- kcat (specific activity), (+) acetyl-CoA [4, 19]: 0.0139 ± 8.3e-05 s⁻¹
- % rate (−) acetyl-CoA compared to the specific activity in the presence of acetyl-CoA ([4]; saturating substrates): 18%
- kcat (specific activity), (+) acetyl-CoA [9, 19]: 0.15 ± 0.00067 s⁻¹
- % rate (−) acetyl-CoA compared to the specific activity in the presence of acetyl-CoA ([9]; saturating substrates): 67%
- decrease in rate caused by lack of acetyl-CoA ([8]; MgATP hydrolysis): 82%
- kcat (specific activity), (+) acetyl-CoA [8, 19]: 0.043 ± 0.0015 s⁻¹
- % rate (−) acetyl-CoA compared to the specific activity in the presence of acetyl-CoA ([8]; saturating substrates): 22%
Molecule: CC(=O)SCCNC(=O)CCNC(=O)[C@H](O)C(C)(C)COP(=O)(O)OP(=O)(O)OC[C@H]1O[C@@H](n2cnc3c(N)ncnc32)[C@H](O)[C@@H]1OP(=O)(O)O [acetyl-CoA, acetyl-coenzyme A, reference compound]

Molecule: O=C(O)CCCC[C@@H]1SC[C@@H]2NC(=O)N[C@@H]21 [biotin]
- fold increase in the catalytic efficiency ([5]; 10 mM free biotin added): ~1000 fold
- fold decrease in the Km for MgATP ([5]; addition of 10 mM biotin): 35 fold

- % kcat of pyruvate carboxylation ([9]; saturating substrates and activators, 1 mM oxamate, pH 7.5, 25° C): 2.0%
Molecule: O=C(O)CC(=O)C(=O)O [oxaloacetate]

- fold stimulation of the rate of oxaloacetate decarboxylation compared to the full reverse reaction ([9]; saturating oxamate): 11 fold
Molecule: NC(=O)C(=O)O [oxamate]

- Ka pyruvate, stimulation of Pi release ([10]; (+) 0.25 mM acetyl-CoA): 0.16 ± 0.01 mM
- Ka pyruvate, stimulation of Pi release ([10]; (−) acetyl-CoA): 0.048 ± 0.008 mM
- fold increase of the rates of Pi release from the BC domain ([10]; low concentrations of pyruvate, absence of acetyl-CoA): 120-175 fold
- fold stimulation of the rate of Pi release from the BC domain ([10]; lowest concentrations of pyruvate, presence of acetyl-CoA): 300-500 fold
- Ka pyruvate (Pi release) without acetyl-CoA, % of (+) acetyl-CoA ([10]; pyruvate varied): 30%
- kcat Pi release without acetyl-CoA, % of (+) acetyl-CoA ([10]; pyruvate varied): 5.8%
- kcat/Ka (Pi release) without acetyl-CoA, % of (+) acetyl-CoA ([10]; pyruvate varied): 19%
- limiting value of the ratio oxaloacetate formation / Pi release ([10]; saturating pyruvate and acetyl-CoA): 1.08
- fold increase in the rate of Pi release ([10]; sub-saturating concentrations of pyruvate): ~300 fold
- Km pyruvate (oxaloacetate formation) without acetyl-CoA, % of (+) acetyl-CoA [11]: 2%
- kcat oxaloacetate formation without acetyl-CoA, % of (+) acetyl-CoA [11]: 0.5%
- kcat/Km (oxaloacetate formation) without acetyl-CoA, % of (+) acetyl-CoA [11]: 24%
- kcat, oxaloacetate formation ([11]; (+) 0.25 mM acetyl-CoA): 5.17 ± 0.13 s⁻¹
- kcat, oxaloacetate formation ([11]; (−) acetyl-CoA): 0.0253 ± 0.0005 s⁻¹
- Km [6, 15]: 150 ± 10 µM
- kcat [6, 15]: 440 ± 8 ^d min^−1
- Vmax ([6]; pyruvate varied, 0.7 mM free Mg^2+): 0.69 ± 0.02 µmol/mg/min
- Vmax ([6]; pyruvate varied, 3.0 mM free Mg^2+): 3.18 ± 0.08 µmol/mg/min
- Vmax ([6]; pyruvate varied, 5.0 mM free Mg^2+): 3.98 ± 0.04 µmol/mg/min
- Vmax ([6]; pyruvate varied, […] free Mg^2+): 1.41 ± 0.01 µmol/mg/min
- Km ([6]; read-out: Km pyruvate, pyruvate varied, 0.7 mM free Mg^2+): 3100 ± 200 µM
- Km ([6]; read-out: Km pyruvate, pyruvate varied, 3.0 mM free Mg^2+): 2650 ± 40 µM
- Km ([6]; read-out: Km pyruvate, pyruvate varied, 5.0 mM free Mg^2+): 150 ± 10 µM
- Km ([6]; read-out: Km pyruvate, pyruvate varied, […] free Mg^2+): 3000 ± 400 µM
Molecule: CC(=O)C(=O)O [pyruvate]

Molecule: K1119Q RePC mutant (Rhizobium etli CFN 42; K1119Q)
- Km ([12]; other: K1119Q): 880 ± 70 µM

Molecule: T882A RePC mutant (Rhizobium etli CFN 42; T882A)
- Km ([12]; other: T882A): 3400 ± 500 µM
- kcat ([12]; other: T882A): 0.4 s⁻¹
- kcat/Km ([12]; other: T882A): 117 M⁻¹ s⁻¹

B1: wild-type RePC (Rhizobium etli CFN 42) (protein)
chain: MPISKILVANRSEIAIRVFRAANELGIKTVAIWAEEDKLALHRFKADESYQVGRGPHLARDLGPIESYLSIDEVIRVAKLSGADAIHPGYGLLSESPEFVDACNKAGIIFIGPKADTMRQLGNKVAARNLAISVGVPVVPATEPLPDDMAEVAKMAAAIGYPVMLKASWGGGGRGMRVIRSEADLAKEVTEAKREAMAAFGKDEVYLEKLVERARHVESQILGDTHGNVVHLFERDCSVQRRNQKVVERAPAPYLSEAQRQELAAYSLKIAGATNYIGAGTVEYLMDADTGKFYFIEVNPRIQVEHTVTEVVTGIDIVKAQIHILDGAAIGTPQSGVPNQEDIRLNGHALQCRVTTEDPEHNFIPDYGRITAYRSASGFGIRLDGGTSYSGAIITRYYDPLLVKVTAWAPNPLEAISRMDRALREFRIRGVATNLTFLEAIIGHPKFRDNSYTTRFIDTTPELFQQVKRQDRATKLLTYLADVTVNGHPEAKDRPKPLENAARPVVPYANGNGVKDGTKQLLDTLGPKKFGEWMRNEKRVLLTDTTMRDGHQSLLATRMRTYDIARIAGTYSHALPNLLSLECWGGATFDVSMRFLTEDPWERLALIREGAPNLLLQMLLRGANGVGYTNYPDNVVKYFVRQAAKGGIDLFRVFDCLNWVENMRVSMDAIAEENKLCEAAICYTGDILNSARPKYDLKYYTNLAVELEKAGAHIIAVKDMAGLLKPAAAKVLFKALREATGLPIHFHTHDTSGIAAATVLAAVEAGVDAVDAAMDALSGNTSQPCLGSIVEALSGSERDPGLDPAWIRRISFYWEAVRNQYAAFESDLKGPASEVYLHEMPGGQFTNLKEQARSLGLETRWHQVAQAYADANQMFGDIVKVTPSSKVVGDMALMMVSQDLTVADVVSPDREVSFPESVVSMLKGDLGQPPSGWPEALQKKALKGEKPYTVRPGSLLKEADLDAERKVIEKKLEREVSDFEFASYLMYPKVFTDFALASDTYGPVSVLPTPAYFYGLADGEELFADIEKGKTLVIVNQAVSATDSQGMVTVFFELNGQPRRIKVPDRAHGATGAAVRRKAEPGNAAHVGAPMPGVISRVFVSSGQAVNAGDVLVSIEAMKMETAIHAEKDGTIAEVLVKAGDQIDAKDLLAVYGG
- Km [13]: 13 ± 2 µM
- kcat [13]: 0.0253 ± 0.0005 s⁻¹
